{"source": "patent US7855297B2", "about": "“Amide derivatives and medicinal use thereof” (Mitsubishi Tanabe Pharma Corporation, priority 2000, dated 2010)", "note": "Where a name gives a salt, the structure may show the parent alone.", "data": [{"units": {"melting point": "°C"}, "values": [{"smiles": "COc1ccc2c(c1)C(C(=O)N(Cc1ccc(N(C)C)cc1)c1ccc(Br)cc1)CCC2", "note": "(stereo not shown) (as salt: hydrochloride) [Example 200, N-(4-bromophenyl)-N-[(4-dimethylaminophenyl)methyl]-7-methoxy-1,2,3,4-tetrahydronaphthalene-1-carboxamide hydrochloride]", "melting point": "104 to 113"}, {"smiles": "COc1ccc2c(c1)C(C(=O)N(Cc1ccc(N)cc1)c1ccc(C(C)C)cc1)CCC2", "note": "(stereo not shown) [Example 167, N-[(4-aminophenyl)methyl]-N-(4-isopropylphenyl)-7-methoxy-1,2,3,4-tetrahydronaphthalene-1-carboxamide]", "melting point": "115 to 117"}, {"smiles": "CC(C)c1ccc(N(Cc2ccc(N(C)C)cc2)C(=O)C2CCCc3cc(O)ccc32)cc1", "note": "(stereo not shown) [Example 37, N-[(4-dimethylaminophenyl)methyl]-6-hydroxy-N-(4-isopropylphenyl)-1,2,3,4-tetrahydronaphthalene-1-carboxamide]", "melting point": "169 to 171"}, {"smiles": "COc1ccc(CN(C(=O)C2CCCc3c(O)cccc32)c2ccc(C(C)C)nc2)c(OC)n1", "note": "(stereo not shown) [Example 133, N-[(2,6-dimethoxypyridin-3-yl)methyl]-5-hydroxy-N-(6-isopropylpyridin-3-yl)-1,2,3,4-tetrahydronaphthalene-1-carboxamide]", "melting point": 164}, {"smiles": "CC(C)c1ccc(N(Cc2ccc(N(C)C)cc2)C(=O)C2CCCc3c(O)cccc32)cc1", "note": "(stereo not shown) [Example 17, N-[(4-dimethylaminophenyl)methyl]-5-hydroxy-N-(4-isopropylphenyl)-1,2,3,4-tetrahydronaphthalene-1-carboxamide]", "melting point": "200 to 202"}, {"smiles": "CC(C)c1ccc(N(Cc2cnn(CCO)c2)C(=O)C2CCCc3c(O)cccc32)cc1", "note": "(stereo not shown) [Example 362, 5-hydroxy-N-{[1-(2-hydroxyethyl)pyrazol-4-yl]methyl}-N-(4-isopropylphenyl)-1,2,3,4-tetrahydronaphthalene-1-carboxamide]", "melting point": "110 to 114"}, {"smiles": "CCn1cc(CN(C(=O)C2CCCc3c(OCCCN(C)C)cccc32)c2ccc(C(C)C)cc2)cn1", "note": "(stereo not shown) (as salt: oxalate) [Example 267, 5-[3-(dimethylamino)propoxy]-N-[(1-ethylpyrazol-4-yl)methyl]-N-(4-isopropylphenyl)-1,2,3,4-tetrahydronaphthalene-1-carboxamide 3/2 oxalate]", "melting point": 142.6}, {"smiles": "COc1ccc(CN(C(=O)C2CCCc3ccc(OC)cc32)c2ccc(C(C)C)cc2)nc1", "note": "(stereo not shown) (as salt: hydrochloride) (hydrate or solvate) [Example 56, N-(4-isopropylphenyl)-N-[(5-methoxypyridin-2-yl)methyl]-7-methoxy-1,2,3,4-tetrahydronaphthalene-1-carboxamide hydrochloride ½ hydrate]", "melting point": "108 to 110"}, {"smiles": "COc1ccc2c(c1)C(C(=O)N(Cc1ccc(CO)cc1)c1ccc(C(C)C)cc1)CCC2", "note": "(stereo not shown) [Example 95, N-{[4-(hydroxymethyl)phenyl]methyl}-N-(4-isopropylphenyl)-7-methoxy-1,2,3,4-tetrahydronaphthalene-1-carboxamide]", "melting point": 143.2}, {"smiles": "CC(C)COc1ccc(Br)cc1N(Cc1ccc(N(C)C)cc1)C(=O)C1CCCc2ccccc21", "note": "(stereo not shown) [Example 5, N-(5-bromo-2-isobutoxyphenyl)-N-[(4-dimethylaminophenyl)methyl]-1,2,3,4-tetrahydronaphthalene-1-carboxamide]", "melting point": "176 to 178"}, {"smiles": "CC(C)c1ccc(N(Cc2cnn(CCN(C)C)c2)C(=O)C2CCCc3c(O)cccc32)cc1", "note": "(stereo not shown) [Example 355, N-({1-[2-(dimethylamino)ethyl]pyrazol-4-yl}methyl)-5-hydroxy-N-(4-isopropylphenyl)-1,2,3,4-tetrahydronaphthalene-1-carboxamide]", "melting point": 92}, {"smiles": "CC(C)c1ccc(N(Cc2ccc(N(C)C)cc2)C(=O)C2CCCc3ccc(O)cc32)cc1", "note": "(stereo not shown) [Example 20, N-[(4-dimethylaminophenyl)methyl]-7-hydroxy-N-(4-isopropylphenyl)-1,2,3,4-tetrahydronaphthalene-1-carboxamide]", "melting point": "214 to 217"}, {"smiles": "CCc1ccc(N(Cc2ccc(N(C)C)cc2)C(=O)C2CCCc3ccccc32)cc1", "note": "(stereo not shown) [Example 1, N-[(4-dimethylaminophenyl)methyl]-N-(4-ethylphenyl)-1,2,3,4-tetrahydronaphthalene-1-carboxamide]", "melting point": "109 to 110"}, {"smiles": "CC(C)c1ccc(N(Cc2ccc(N(C)C)cc2)C(=S)C2CCCc3ccccc32)cc1", "note": "(stereo not shown) [Example 54, N-[(4-dimethylaminophenyl)methyl]-N-(4-isopropylphenyl)-1,2,3,4-tetrahydronaphthalene-1-carbothioamide]", "melting point": "123 to 125"}, {"smiles": "CC(C)c1ccc(N(Cc2ccc(N(C)C)cc2)C(=O)C2CCCc3ccc(F)cc32)cc1", "note": "(stereo not shown) (as salt: hydrochloride) [Example 127, N-[(4-dimethylaminophenyl)methyl]-7-fluoro-N-(4-isopropylphenyl)-1,2,3,4-tetrahydronaphthalene-1-carboxamide hydrochloride]", "melting point": 165.6}, {"smiles": "COc1ccc2c(c1)C(C(=O)N(Cc1ccc(N(C)C)nc1)c1ccc(C(C)C)cc1)CCC2", "note": "(stereo not shown) (as salt: hydrochloride) (hydrate or solvate) [Example 55, N-[(6-dimethylaminopyridin-3-yl)methyl]-N-(4-isopropylphenyl)-7-methoxy-1,2,3,4-tetrahydronaphthalene-1-carboxamide hydrochloride ½ hydrate]", "melting point": "158 to 160"}, {"smiles": "COc1ccc2c(c1)C(C(=O)N(Cc1ccc(S(C)(=O)=O)cc1)c1ccc(C(C)C)cc1)CCC2", "note": "(stereo not shown) [Example 35, N-(4-isopropylphenyl)-N-[(4-methylsulfonylphenyl)methyl]-7-methoxy-1,2,3,4-tetrahydronaphthalene-1-carboxamide]", "melting point": "131 to 132"}, {"smiles": "CC(C)c1ccc(N(Cc2ccc(N(C)C)cc2)C(=O)C2CCCc3c(OCCN(C)C)cccc32)cc1", "note": "(stereo not shown) (as salt: oxalate) (hydrate or solvate) [Example 113, 5-[2-(dimethylamino)ethoxy]-N-[(4-dimethylaminophenyl)methyl]-N-(4-isopropylphenyl)-1,2,3,4-tetrahydronaphthalene-1-carboxamide oxalate ¼ hydrate]", "melting point": 155.7}, {"smiles": "CC(C)c1ccc(N(Cc2cnn(CC(F)(F)F)c2)C(=O)C2CCCc3c(O)cccc32)cn1", "note": "(stereo not shown) [Example 435, 5-hydroxy-N-(6-isopropylpyridin-3-yl)-N-{[1-(2,2,2-trifluoroethyl)pyrazol-4-yl]methyl}-1,2,3,4-tetrahydronaphthalene-1-carboxamide]", "melting point": 127.7}, {"smiles": "COc1ccc2c(c1)C(C(=O)N(Cc1ccc(OC)nc1)c1ccc(C(C)C)cc1)CCC2", "note": "(stereo not shown) (as salt: hydrochloride) [Example 46, N-(4-isopropylphenyl)-N-[(6-methoxypyridin-3-yl)methyl]-7-methoxy-1,2,3,4-tetrahydronaphthalene-1-carboxamide monohydrochloride]", "melting point": "114 to 117"}, {"smiles": "COc1ccc(N(Cc2ccc(N(C)C)cc2)C(=O)C2CCCc3ccc(F)cc32)cc1", "note": "(stereo not shown) (as salt: hydrochloride) (hydrate or solvate) [Example 128, N-[(4-dimethylaminophenyl)methyl]-7-fluoro-N-(4-methoxyphenyl)-1,2,3,4-tetrahydronaphthalene-1-carboxamide hydrochloride ½ hydrate]", "melting point": 125.4}, {"smiles": "CC(C)c1ccc(N(Cc2ccc(N(C)C)cc2)C(=O)C2CCCc3cc(OCCN(C)C)ccc32)cc1", "note": "(stereo not shown) (hydrate or solvate) [Example 106, 6-[2-(dimethylamino)ethoxy]-N-[(4-dimethylaminophenyl)methyl]-N-(4-isopropylphenyl)-1,2,3,4-tetrahydronaphthalene-1-carboxamide ⅕ hydrate]", "melting point": 132.6}]}]}
